We go through four molecules from US5739274A, “Active component of parathyroid hypertensive factor” (CV Technologies, Inc., priority 1995, dated 1998).

In one experiment the test system is Na+ K+ ATPase. The experiment can be described thus: Na+ K+ ATPase activity as ouabain-sensitive 86Rb uptake in rat tail artery. It counts as cell-based. The procedure: Na^+ K^+ ATPase activity was measured as the ouabain-sensitive ^86 Rb uptake in rat tail artery using the method of Deth et al. Briefly, male Sprague-Dawley rats weighing 300 to 400 g were sacrificed by pentobarbital overdose, and the tail arteries removed and cut into strips. The strips were rinsed in ice-cold Krebs solution (composition: NaCl, 117 mM; KCl, 5 mM; NaHCO3, 27 mM, NaH2 PO4, 1 mM, MgSO4, 1.2 mM, CaCl2, 1.25 mM, glucose 11.0 mM) and incubated in oxygenated (95% O2, 5% CO2) Krebs buffer at 37° C. for 2 hours. For the final 30 minutes, Krebs solution with no KCl and 122 mM NaCl was used to sodium-load the tissues. Following this incubation, the strips were transferred to tubes containing Krebs buffer and 1 μCi of ^86 Rb, giving a final […] concentration of 5 mM. Various incubation media consisting of the above-described incubation solution plus 30% SHR plasma (Rb concentration kept constant in all cases) plus 1 mM ouabain and incubation plus 30% plasma plus 1 mM ouabain. Strips were incubated in the respective solutions for 18 minutes, then rinsed in four changes of ice-cold Krebs solution, blotted, weighed and counted in a gamma counter. The effect of the various incubations on ^86 Rb uptake was analyzed by ANOVA using the Student-Neuman-Keuuls test for post-hoc comparisons. All results are expressed as mean±SD.

The test system of another experiment is rat tail artery. Put plainly: Blood vessel tension measurement, norepinephrine-induced tension in helical strips. It counts as cell-based. The following applies: 40 mins incubation before second NE doses. The procedure: The method was essentially similar to the one described by Pang, et al. (1980). Sprague-Dawley rats of either sex were anesthetized with pentobarbital (50 mg/kg) and the tail artery or aorta were isolated and removed and then placed in KHS buffer (115 mM NaCl, 5 mM KCl, 2.1 mM CaCl2, 1.2 mM MgSO4, 1.2 mM NaH2 PO4, 25 mM NaHCO3, and 11 mM glucose) oxygenated with 95% O2, 5% CO2. The vessels were cut helically and strips of approximately 1.5 cm were secured in a Sawyer-Bartlestone chamber containing KHS. The force development of the helical strips was measured with a Grass FT 0.03 force displacement transducer and recorded on a Grass Model 79D polygraph. Isolated tail artery helical strips were equilibrated for 1 hour prior to addition of any vasoconstricting agents. The strips were preloaded with a resting tension of 0.7 g and incubated at 37° C. (Pang et al., 1985). In all cases, the responsiveness of strips was first tested by adding 60 mM KCl and only responsive tissue was used in experiments. There were two series of experiments.
Two consecutive dose responses to NE in tension development with 1 hour interval were compared. The tissue was washed out after adding first accumulated doses of NE and incubated in normal KHS buffer for 20 mins. The control solvent or testing substances (PHF or LP compounds) were then applied and incubated for another 40 mins. […]

The subject of a further experiment is SD rats. The experiment can be described thus: Blood pressure bioassay, bolus injection into anesthetized normotensive SD rats. It counts as in vivo. As to conditions: normotensive rat, as in Example 1. As for the experimental part:
SD rats were anesthetized using Na pentobarbital, (50 mg/kg, i.p.) and catheters were inserted in the jugular vein for injection of plasma and drugs and in the carotid artery for measurement of b.p.
The chloroform methanol extract of SHR plasma was redissolved in saline and administered by bolus injection.

Another experiment concerns the target T1, L-type Ca2+ channel (Rattus norvegicus, UniProt P22002).
T1 construct: single VSMC isolated form rat tail artery by using the whole cell version of the patch clamp technique; endogenous in cells; host or cells: freshly isolated vascular smooth muscle cells of rat tail artery
Put plainly: Ca2+ channel study, whole cell patch clamp in single VSMC. It counts as cell-based. The following applies: IBMX applied after FMOC-PHF. The procedure: Ca^2+ channel activity was determined in single VSMC isolated form rat tail artery by using the whole cell version of the patch clamp technique (Hamill et al., 1981). Whole cell Ca^2+ current measurements were carried out by using an Axopatch-1B patch clamp amplifier (Axon Instruments). Patch micropipettes were pulled from borosilicate thin wall glass capillary tubes (OD 1.2 mm, ID 0.9 mm, FHS, Brunswick, Maine, USA) with a two stage micropipette puller (Narishige, PP83, Japan). The micropipettes were fire polished using a microforge (Leitz, Wetzlar, Germany). The tip diameter was approximately 1 μm with a resistance of 2-8 Mega Ohms. The cell attached to the bottom of a 3 cm Petri dish and was bathed in the medium containing 110 mM Tris, 5 mM CsCl, 20 mM HEPES, 30 mM glucose, 20 mM BaCl2, and 0.5 μM TTX. The polished pipette filled with a solution containing 75 mM Cs2 -aspartate, 10 mM EGTA, 2 mM ATP, 5 mM MgCl2, 5 mM K-pyruvate, 5 mM K-succinate, 25 mM glucose, 15 mM HEPES, 5 mM creatine phosphate-Na2, and 50 units/ml creatine kinase was placed against the cell membrane using a Narishige hydraulic micromanipulator. Gentle suction was applied via a tubing attached to the pipette holder. […] The currents were monitored using a digital oscilloscope (Nicolet Instrument Co., Madison, Wis., U.S.A.) and filtered at 3 KHz with a low pass filter (Axon Instruments, Foster City, Calif., U.S.A.). […]
Background: In patch-clamp work, channel activity is measured electrically.

The subject of experiment [1] is CaM (calmodulin)-Dependent PDE. Put plainly: Activation of CaM-dependent PDE (cGMP-PDE activity). It counts as biochemical. The procedure:
The measurement of cGMP-PDE activity is based on the conversion of [^3 H]cGMP into [^3 H]GMP and its subsequent hydrolysis by snake venom into [^3 H]Guanosine (Wallace, et al., 1983; Wells, et al., 1975). The testing substance was added to a mixture containing 60 mM TES, 3 mM MgCl2, 0.8 mg/ml BSA, 25 μM EGTA, 50 uM CaCl2, 1 mM DTT, 0.5 μM cGMP and [^3 H]-cGMP (10-15×10^3 cpm) at a final pH of 7.5 for a total volume of 200 μl. The reaction was started by the addition of a fixed quantity of CaM-deficient PDE (Sigma Chemical Co., St. Louis, Mo.). Incubation carried out for 15 mins at 30° C., was terminated by boiling for 5 mins. The second reaction was initiated by the addition of 20 μl (10 mg/ml) of snake venom (Crotalus atrox). After 10 mins., the incubation was stopped with 700 μl of a second termination medium containing 0.1 mM guanosine. The total incubation mixture was then applied onto a column of QAE-Sephadex A-25 (formate form) to separate labeled nucleotides from the labeled nucleosides formed. The resin was eluted with 4 ml of 20 mM ammonium formate (pH 6.5), and the radioactivity of the eluate containing [^3 H]guanosine was determined in a liquid scintillation counter. A standard curve of PDE stimulation by CaM was obtained by the addition of different concentrations of purified bovine heart CaM (Sigma) (0.1-200 ng/tube). […]

The test system of experiment [2] is vascular smooth muscle cells isolated from rat tail artery. The experiment can be described thus: Intracellular calcium determination (fura-2). It counts as cell-based. As to conditions: 45 mins incubation before KCl; 30 mM KCl for pure PHF, 15 mM KCl for FMOC-PHF. The procedure: All studies were performed in vascular smooth muscle cells isolated from Sprague Dawley (SD) rat tail artery as described in Wang, et al. (Wang, et al. 1989) with modification. Male SD rats (100-200 g body weight) were anaesthetized with sodium pentobarbital (65 mg/kg body weight intraperitoneally) and the tail artery dissected out and immersed in cold Ca and Mg free Hanks' balanced salt solution (HBSS, Gibco). The blood was washed off from the artery and the connective tissue was then removed. Using a dissecting microscope inside a laminar flow hood, the artery was cut into pieces of about 1.5 cm and placed in 4° C. Ca free HBSS for 30 minutes. […]
Primary cultured vascular smooth muscle cells were incubated for 45 minutes in DMEM containing 5 μM fura-2 acetoxymethyl ester (Molecular Probes, INC.) at room temperature. […] After about 5 min, the coverslip with attached cells was placed in a Sykes-Moore chamber of 1-ml volume on the stage of an inverted microscope, and fluorescence measurements were made with a Fluoroplex III sepctrofluorometer (Tracor Northern). […] R is the ratio of fluorescence in the sample excited at […] which represents intracellular free calcium concentration. […]
The monolayer cells in 1 mM Ca^2+ 5K buffer were challenged by testing substances and the change of R was recorded for a certain period of time. […]

T1 sequence (P22002 whole entry): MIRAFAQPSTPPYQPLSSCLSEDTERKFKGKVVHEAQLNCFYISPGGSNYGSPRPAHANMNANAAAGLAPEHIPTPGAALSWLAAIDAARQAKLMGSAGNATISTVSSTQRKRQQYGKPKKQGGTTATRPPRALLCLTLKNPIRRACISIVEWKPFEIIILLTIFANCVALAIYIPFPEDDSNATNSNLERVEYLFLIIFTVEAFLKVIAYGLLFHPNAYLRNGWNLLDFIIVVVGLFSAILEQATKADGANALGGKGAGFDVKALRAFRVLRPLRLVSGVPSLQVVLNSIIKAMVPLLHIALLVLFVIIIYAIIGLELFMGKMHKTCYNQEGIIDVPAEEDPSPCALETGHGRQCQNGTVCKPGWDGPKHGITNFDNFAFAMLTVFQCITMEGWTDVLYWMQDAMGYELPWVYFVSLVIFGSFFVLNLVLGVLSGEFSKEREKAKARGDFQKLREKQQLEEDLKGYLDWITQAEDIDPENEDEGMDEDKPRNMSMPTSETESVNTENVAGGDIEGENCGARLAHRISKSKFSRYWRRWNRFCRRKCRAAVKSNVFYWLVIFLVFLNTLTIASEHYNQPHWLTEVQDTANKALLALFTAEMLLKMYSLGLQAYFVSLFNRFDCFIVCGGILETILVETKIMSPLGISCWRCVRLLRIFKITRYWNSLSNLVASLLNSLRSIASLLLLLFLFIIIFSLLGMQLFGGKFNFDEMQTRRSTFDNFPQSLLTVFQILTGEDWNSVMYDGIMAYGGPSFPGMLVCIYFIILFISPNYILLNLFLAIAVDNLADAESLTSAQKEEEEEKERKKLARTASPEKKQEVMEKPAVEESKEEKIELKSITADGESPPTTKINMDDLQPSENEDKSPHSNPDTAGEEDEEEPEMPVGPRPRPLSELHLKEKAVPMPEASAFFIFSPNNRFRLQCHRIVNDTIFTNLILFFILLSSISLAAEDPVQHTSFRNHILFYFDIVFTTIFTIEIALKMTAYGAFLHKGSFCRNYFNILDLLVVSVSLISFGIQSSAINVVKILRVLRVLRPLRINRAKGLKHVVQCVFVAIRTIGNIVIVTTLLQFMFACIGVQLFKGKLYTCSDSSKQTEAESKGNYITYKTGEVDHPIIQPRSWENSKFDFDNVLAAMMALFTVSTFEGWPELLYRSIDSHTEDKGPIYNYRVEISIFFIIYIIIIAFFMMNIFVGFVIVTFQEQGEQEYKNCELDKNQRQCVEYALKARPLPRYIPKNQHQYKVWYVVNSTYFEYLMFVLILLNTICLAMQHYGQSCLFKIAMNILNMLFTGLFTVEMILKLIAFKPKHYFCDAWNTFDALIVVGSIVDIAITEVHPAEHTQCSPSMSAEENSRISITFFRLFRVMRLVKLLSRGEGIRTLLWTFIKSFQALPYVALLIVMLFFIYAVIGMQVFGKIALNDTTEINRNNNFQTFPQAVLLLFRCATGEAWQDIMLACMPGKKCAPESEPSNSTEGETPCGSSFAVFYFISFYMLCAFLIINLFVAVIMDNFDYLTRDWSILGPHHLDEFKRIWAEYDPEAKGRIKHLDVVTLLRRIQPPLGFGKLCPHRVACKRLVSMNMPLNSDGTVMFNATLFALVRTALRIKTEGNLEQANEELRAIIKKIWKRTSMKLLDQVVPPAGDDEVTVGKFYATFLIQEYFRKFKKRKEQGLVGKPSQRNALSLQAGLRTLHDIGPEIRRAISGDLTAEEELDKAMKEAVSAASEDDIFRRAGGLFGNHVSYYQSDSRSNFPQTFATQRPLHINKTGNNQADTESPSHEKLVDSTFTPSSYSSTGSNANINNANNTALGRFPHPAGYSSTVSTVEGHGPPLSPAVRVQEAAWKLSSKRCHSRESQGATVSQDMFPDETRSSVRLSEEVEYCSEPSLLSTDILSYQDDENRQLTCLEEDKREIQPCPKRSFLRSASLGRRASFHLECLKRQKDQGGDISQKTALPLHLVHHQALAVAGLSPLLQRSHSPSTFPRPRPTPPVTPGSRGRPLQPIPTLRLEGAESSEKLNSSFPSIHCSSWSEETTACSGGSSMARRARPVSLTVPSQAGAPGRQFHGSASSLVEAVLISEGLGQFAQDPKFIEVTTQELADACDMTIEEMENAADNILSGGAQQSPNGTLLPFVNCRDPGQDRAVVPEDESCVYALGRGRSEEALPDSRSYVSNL
T1 sequence (P54290 25-944 partner limits assumed): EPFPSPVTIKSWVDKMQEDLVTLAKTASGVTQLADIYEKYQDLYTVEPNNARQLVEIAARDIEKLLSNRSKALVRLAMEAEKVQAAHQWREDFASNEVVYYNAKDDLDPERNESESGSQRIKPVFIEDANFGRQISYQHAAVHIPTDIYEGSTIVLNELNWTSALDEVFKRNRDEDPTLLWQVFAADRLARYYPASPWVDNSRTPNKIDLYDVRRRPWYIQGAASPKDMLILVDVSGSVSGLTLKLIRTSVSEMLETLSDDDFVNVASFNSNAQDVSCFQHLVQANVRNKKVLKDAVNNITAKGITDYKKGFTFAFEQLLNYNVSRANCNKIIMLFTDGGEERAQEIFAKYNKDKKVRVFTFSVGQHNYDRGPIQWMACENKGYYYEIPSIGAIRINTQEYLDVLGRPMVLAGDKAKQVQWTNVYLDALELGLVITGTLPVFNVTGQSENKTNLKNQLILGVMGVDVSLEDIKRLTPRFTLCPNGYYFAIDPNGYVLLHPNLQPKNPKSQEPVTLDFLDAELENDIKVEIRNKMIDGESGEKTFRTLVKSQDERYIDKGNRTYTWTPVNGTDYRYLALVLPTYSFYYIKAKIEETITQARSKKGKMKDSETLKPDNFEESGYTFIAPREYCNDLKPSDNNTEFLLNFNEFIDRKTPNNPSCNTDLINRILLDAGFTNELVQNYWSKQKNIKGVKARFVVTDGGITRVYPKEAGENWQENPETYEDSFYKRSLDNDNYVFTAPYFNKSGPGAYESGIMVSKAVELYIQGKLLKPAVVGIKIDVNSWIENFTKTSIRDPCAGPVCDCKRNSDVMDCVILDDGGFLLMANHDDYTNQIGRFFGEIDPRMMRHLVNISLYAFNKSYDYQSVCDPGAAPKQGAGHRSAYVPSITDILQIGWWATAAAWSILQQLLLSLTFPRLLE
T1 sequence (P54290 945-1091 partner limits assumed): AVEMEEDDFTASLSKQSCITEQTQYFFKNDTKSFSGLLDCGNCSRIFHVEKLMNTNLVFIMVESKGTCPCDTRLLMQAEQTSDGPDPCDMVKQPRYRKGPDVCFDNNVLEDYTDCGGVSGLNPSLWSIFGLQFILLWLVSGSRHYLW
T1 sequence (P54287 whole entry partner): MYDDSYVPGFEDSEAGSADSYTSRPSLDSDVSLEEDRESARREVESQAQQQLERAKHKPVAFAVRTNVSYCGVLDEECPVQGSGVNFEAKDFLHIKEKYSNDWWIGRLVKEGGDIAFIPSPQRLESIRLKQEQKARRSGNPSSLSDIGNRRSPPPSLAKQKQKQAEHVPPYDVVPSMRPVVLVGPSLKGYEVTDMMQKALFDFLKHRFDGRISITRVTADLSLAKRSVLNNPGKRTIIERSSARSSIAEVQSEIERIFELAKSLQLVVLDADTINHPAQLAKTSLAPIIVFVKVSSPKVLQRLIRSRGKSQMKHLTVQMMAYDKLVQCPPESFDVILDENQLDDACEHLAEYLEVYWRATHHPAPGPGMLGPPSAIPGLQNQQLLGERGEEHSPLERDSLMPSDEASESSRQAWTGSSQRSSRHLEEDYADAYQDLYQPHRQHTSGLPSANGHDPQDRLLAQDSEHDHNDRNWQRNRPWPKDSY

Lysophosphatidyl inositol: the “increase in 86Rb uptake” value in the experiment on Na+ K+ ATPase (600 micromolar, p<0.05) stood at 31%. Further, the “effect on norepinephrine induced tension development” value in the experiment with rat tail artery is on record as “potentiations of norepinephrine induced tension”. Moreover, in the experiment with SD rats, the “hypertensive response (blood pressure in normotensive rats)” value was “delayed, sustained increase in blood pressure”.
Turning to `CC(C)Cn1c(=O)n(C)c(=O)c2[nH]cnc21` [IBMX], on L-type Ca2+ channel, the “effect on calcium channel current increased by FMOC-PHF” value is given as “reversal”.
With Lysophosphatidyl serine, the “increase in 86Rb uptake” value in the experiment with Na+ K+ ATPase (30 micromolar, p<0.01) is on record as 46%. Further, the “effect on phosphodiesterase (PDE) activity” value in experiment [1] is listed as “stimulated PDE activity”. Further, the “hypertensive response (blood pressure in normotensive rats)” value in the experiment with SD rats was “delayed sustained increase in blood pressure”.
Regarding lysophosphatidyl choline [LPC], the “effect on intracellular calcium ([Ca2+]i increment induced by KCl)” value in experiment [2] is on record as “significantly augments the increase in intracellular calcium induced by KCl”.
